Test results as given in PubChem BioAssay AID463074 (Broad Institute, 2010).
Active and inactive are the calls of the source.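 How the source made its calls: active means AC50 no more than tenfold above the top dose tested, or full inhibition at every dose with a flat fit (cut at about 19 µM in these data); inconclusive means flat curve fit with inhibition between 30% and 70%, or poor fit; inactive means AC50 more than tenfold above the top dose tested.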

Test system: HMLE_sh_eGFP viability, CellTiter-Glo luminescence, 72 h
Experiment: viability loss of HMLE_sh_eGFP cells – cell-based, luminescence, counter-screen for HMLE_sh_ECad selective toxicity project, dose response (AID 463074);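 further: counterscreen control line to flag general toxicity for the HMLE_sh_ECad screen; potency for loss of viability as luminescence drops below DMSO wells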

Compound | AC50
CCCCC(CC)CN1C(=O)/C(=C/c2ccncc2)SC1=S (stereo not given) | 6.81 µM
CN(CC(=O)Nc1ccccc1Cl)C(=O)c1cccc(-n2cccc2)c1 | > 19.5 µM (inactive)
CCN(c1ccccc1)c1nc(C#N)nc(N(CC)c2ccccc2)n1 | 7.07 µM
COC(=O)C1=C(C)N(Cc2ccccc2)C(=NCc2cccc(Cl)c2)N[C@H]1c1ccccc1 | 7.17 µM
COc1cccc(C(=O)/C=C/c2ccc(N3CCCCC3)c([N+](=O)[O-])c2)c1 | 6.69 µM
COC(=O)C1=C(C)N(Cc2ccccc2)C(=NCCc2c[nH]c3ccccc23)N[C@H]1c1cccc(F)c1 | 7.06 µM
C=CCc1cccc(CNc2nc3ccccc3n2CCC)c1O | 13.5 µM
COc1ccc(-c2cn(CCc3c[nH]c4ccccc34)nn2)cc1 | 2.69 µM
COc1ccc2sc(-c3ccccc3OC)c(-c3ccc(OCCN4CCCC4)cc3)c2c1 | 3.74 µM
CN(C)c1ccc(/C=N/NC(=O)C(=O)/C=C2\NC3(CCCC3)Cc3ccccc32)cc1 | 6.5 µM
COC(=O)c1c(NC(=O)/C=C/c2ccc3c(c2)OCO3)sc(C)c1C | 1.7 µM
Fc1cccc(-n2c(-c3cccs3)nc3nc4ccccc4nc32)c1 | 2.32 µM
Cc1ccc(N2C(=O)C3C4C=CC(CC4)C3C2=O)cc1Br (stereo not given) | 1.38 µM
CN(C)CCNC=C(C(=O)Nc1ccc(Cl)cc1Cl)C(=O)Nc1ccc(Cl)cc1Cl | 9.23 µM
Cc1ccc(C(=O)NC(=C(Cl)Cl)S(=O)(=O)c2ccccc2)cc1 | 3.22 µM
CCCCCCSc1ccc(-c2nc3ccccn3c2NCCCC)cc1 | 6.98 µM
N=C(N)SCc1nc2ccccc2c(=O)n1-c1ccccc1Cl | 12.5 µM
Cc1ccc(NC2=C(Cl)C(=O)c3ccccc3C2=O)cc1 | 1.95 µM
Fc1cccc(-c2cc3nc4c(c(NCc5ccco5)n3n2)CCCC4)c1 | 7.77 µM
O=C(c1c[nH]c2ccccc12)C(Cl)c1ccccc1 (stereo not given) | 11.2 µM
N/C(=N\N=C/c1ccc(Br)cc1)N/N=C\c1ccc(Br)cc1 | 3.83 µM
O=C(Nc1cccc(Cl)c1N1CCCCC1)c1ccc2c(c1)OCCO2 | 11.4 µM
O=C(Nc1ccn(Cc2ccccc2F)n1)c1ccc(COc2ccc(Cl)cc2Cl)o1 | > 19.5 µM (inactive)
COc1cc([C@@H]2c3cc4c(cc3[C@@H](O)[C@H]3COC(=O)[C@H]23)OCO4)cc(OC)c1O[Si](C)(C)C(C)(C)C | 6.76 µM
Cc1ccccc1CS(=O)(=O)c1ncc(Cl)c(C(=O)Nc2ccc(F)cc2)n1 | 4.11 µM
Clc1ccc2nnnc(-c3ccccc3)c2c1 | 4.26 µM
CCOc1cc(/C=C\c2[nH]c(=O)[nH]c(=O)c2[N+](=O)[O-])ccc1OC(C)CC (stereo not given) | 8.32 µM

Compound | AC50
Cn1nnnc1Sc1ncnc2scc(-c3ccc(Cl)cc3)c12 | 3.3 µM
O=C(COc1cccc(C(F)(F)F)c1)N1CCN(c2ccc(O)cc2)CC1 | 4.98 µM
NC(=O)CC(NC(=O)c1ccc(Br)cc1)c1ccc(N2CCCCCCC2)c([N+](=O)[O-])c1 (stereo not given) | 7.85 µM
Cc1cc(N=Nc2ccc3ccccc3c2)ccc1O | 6.83 µM
CCOC(=O)c1c(NC(=O)C(=O)N/N=C/c2ccccc2O)sc2c1CCCCC2 | 2.84 µM
CC1CCN(CCCNC(=O)c2ccc3c(=O)n(Cc4ccc(Cl)cc4)c(=S)[nH]c3c2)CC1 | 5.33 µM
Cc1ccc(C(C[N+](=O)[O-])n2nc(C)cc2C)cc1 (stereo not given) | 6.74 µM
Cc1c(NC(=O)c2ccc([N+](=O)[O-])o2)cccc1-c1nc2ncccc2o1 | 6.52 µM
C=C(C)C1Cc2c(C)nn(-c3cccc4ccccc34)c2C1 (stereo not given) | 7.55 µM
COc1ccc(NS(=O)(=O)c2cc(-c3cnc(C4CC4)o3)ccc2C)cc1 | 0.968 µM
CC(=O)Nc1ccc(C2CC(c3ccc(Cl)cc3)=NN2c2ccccc2)cc1 (stereo not given) | 2.13 µM
Cc1ccc(C(=O)CSC2=C(C#N)C(c3ccco3)C3=C(CC(C)(C)CC3=O)N2)cc1 (stereo not given) | 3.33 µM
CC(C)(C)C1CCC2(CC1)C(C#N)=C(SCC(=O)NC1CCCCC1)NC(=O)C2C#N (stereo not given) | 9.88 µM
O=c1c(Cl)c(NCc2ccccc2Cl)cnn1C12CC3CC(CC(C3)C1)C2 | 2.43 µM
CCn1c(=O)c(C(=O)NCCc2ccccc2)c(O)c2ccccc21 | 5.62 µM
Cc1cc(C)c(C)c(S(=O)(=O)N2CCN(c3ccc(O)cc3)CC2)c1C | 10.7 µM
CCc1ccc(N2C(=O)NC(=O)/C(=C\C=C\c3ccco3)C2=O)cc1 | 3.72 µM
O=C(N[C@H]1C/C=C\C[C@@H](CC(=O)N(CCO)Cc2ccccc2)C(=O)NC[C@H](c2ccccc2)OC1=O)OCC1c2ccccc2-c2ccccc21 | 2.41 µM
CC1(C)Cc2c(c(N3CCOCC3)nc3sc4c(NN)ncnc4c23)CS1 | 11.4 µM
CCOC(=O)c1c(NC(=O)c2nn(CC)cc2Br)sc2c1CCCCC2 | 1.95 µM
C/C(=N\Nc1cc(C(F)(F)F)ccc1Cl)c1ccccc1O | 19.9 µM
CC(C)(C)c1nc(N2CCN(C(=O)c3ccco3)CC2)c2nnn(Cc3ccccc3Cl)c2n1 | 8.78 µM
O=C1NC(c2ccc(-c3ccccc3[N+](=O)[O-])o2)C(C(=O)c2ccc(Cl)cc2)C(O)(C(F)(F)F)N1 (stereo not given) | 13.8 µM
O=C(c1ccc(CSc2ccccc2)cc1)N1CCN(c2ccccc2)CC1 | 9.49 µM
CC(C)C[C@H](CO)N(Cc1ccccc1)S(=O)(=O)N(Cc1ccccc1)[C@@H](CO)CC(C)C | 3.49 µM
Cc1ccc(Sc2c([N+](=O)[O-])c(=O)n(C)c3ccccc23)cc1 | 7.05 µM
COc1cc(-c2ccc3oc(-c4cccc(C)c4)c(C#CC4(O)CCCCC4)c3c2)cc(OC)c1OC | 15.4 µM

Compound | AC50
C=CCCC(=O)Nc1nc(C)c(-c2csc(Nc3ccc(Cl)cc3)n2)s1 | 3.83 µM
CN[C@H]1CCc2cc(OC)c(OC)c(OC)c2-c2ccc(N(C)CC(OC)OC)c(=O)cc21 | 2.15 µM
CCOC(=O)C1=C(N)Oc2cc(O)ccc2C1c1cccc(Cl)c1 (stereo not given) | 4.06 µM
O=[N+]([O-])c1cc(C(F)(F)F)ccc1NCCc1c[nH]c2ccccc12 | 4.16 µM
CC1(C)CN(c2ccccc2)N(C(=O)c2ccc(C#N)cc2)C1=O | 4.31 µM
COc1ccc(/C=C/C(=O)c2ccc([N+](=O)[O-])o2)cc1OC | 2.47 µM
Cc1cc(F)ccc1S(=O)(=O)Nc1ccccc1C(=O)Nc1ccccc1-c1nc2ccccc2[nH]1 | 5.51 µM
COC(=O)c1cc(NC(=O)c2cc(-c3ccccc3Cl)oc2C(F)(F)F)ccc1N1CCOCC1 | 20.3 µM
Cc1ccc(C)c(NC(=O)/C(C#N)=C/c2cn(CC(=O)NCc3ccco3)c3ccccc23)c1 | > 19.5 µM (inactive)
OCCCNc1cc(-c2ccccc2)nc2cc(-c3ccc(F)cc3)nn12 | 9.12 µM
CCCCCCCCCCCCN1[C@@H](CC(C)=O)c2cc(F)ccc2S1(=O)=O | 10 µM
CCOC(=O)c1c(NC(=O)C2COc3ccccc3O2)sc2c1CC(C)(C)NC2(C)C (stereo not given) | 9.86 µM
NCC(c1ccc(Cl)cc1Cl)c1c[nH]c2ccccc12 (stereo not given) | 11.9 µM
O=[N+]([O-])/C=C/c1cn(Cc2ccc(Cl)cc2)c2ccccc12 | 2.2 µM
COc1ccccc1-c1sc2ccccc2c1C#CC1(O)CCCCC1 | 10.8 µM
CCC(=O)Nc1ccc(C(=O)Cn2ncc(Cl)c(Cl)c2=O)cc1 | 7.77 µM
Clc1ccc2c(N/N=C/c3ccc(Br)cc3)ccnc2c1 | 7.56 µM
Cc1ccc(S(=O)(=O)Nc2ccc(-c3nnc(SCc4ccccc4Cl)o3)cc2)cc1 | 5.7 µM
CC(=O)NC(c1cc(Cl)c2cccnc2c1O)C1CC1 (stereo not given) | 9.04 µM
C/C(=N\NC(=O)c1nnn(-c2nonc2N)c1CN1CCc2ccccc21)c1ccccc1O | 3.21 µM
COc1ccc(OC)c(-c2nnc3n2N=C(c2ccc(OC(F)F)c(OCC4CC4)c2)CS3)c1 | 4.26 µM
CCOc1ccc(N/C(N)=N/c2nc(CSc3nnc(C)s3)cc(=O)[nH]2)cc1 | 0.609 µM
c1ccc(CNc2c(-c3cccc(SC4CCCCC4)c3)nc3ccccn23)cc1 | 3.6 µM
Cc1ccc(C)c(S(=O)(=O)N2CCN(c3ncnc4sccc34)CC2)c1 | 3.19 µM
COc1ccc(C(=O)/C=C/c2ccc(OC)c(Cn3nnc4ccccc43)c2)cc1 | 6.82 µM
CC[C@@H]1CC=C[C@H]2[C@H]1C(=O)N(Cc1ccccc1)[C@H]2c1ccc(OC)c(Cl)c1 | 7.13 µM
NC(=O)CC(NC(=O)Cc1cccc2ccccc12)c1ccc(NC2CCCCCCC2)c([N+](=O)[O-])c1 (stereo not given) | 12 µM

Compound | AC50
CCN(CC)CCOc1ccc(/C(=C(\Cl)c2ccccc2)c2ccccc2)cc1 | 1.55 µM
Cc1cc(C)nc(NC(=O)/C=C/c2cccs2)c1 | > 19.5 µM (inactive)
CCCCCNCC(=O)Nc1cccc(C(=O)Nc2cccc(C(F)(F)F)c2)c1 | 13.2 µM
CC(=O)Oc1ccc(C(=O)Nc2ccc(C3(C#N)CCCC3)cc2)cc1 | 8.24 µM
Cc1ccccc1C(=O)N1CCN(c2ccc(NC(=O)c3ccc([N+](=O)[O-])o3)cc2)CC1 | 4.37 µM
COC(=O)c1sc2nc(N3CCCCC3)c3c(c2c1N)CCCC3 | 4.94 µM
Nc1cc(Cl)ccc1Oc1ccc2ccccc2c1 | > 10 µM (inactive)
Cc1cc(C)c(OCCCCN2CCNCC2)c(C)c1 | 16 µM
CC(=O)N1c2ccc(Cl)cc2C2C=CCC2C1c1cccc2ccccc12 (stereo not given) | 5.36 µM
O=[N+]([O-])c1cccc(C2NCC(c3ccccc3Cl)c3c2[nH]c2ccccc32)c1 (stereo not given) | 6.75 µM
CCCCCc1cc(=O)oc2c(C(CCN3CCCC(C)C3)c3cc(OC)c(OC)c(OC)c3)c(OC)cc(OC)c12 (stereo not given) | 7.18 µM
C/C(N=Nc1nc2ccccc2s1)=N\Nc1ccccc1O | 6.1 µM
Cc1ccc(OC/C(O)=C(\C#N)c2nc3ccccc3s2)cc1 | 6.81 µM
CCC(C)Sc1ccc(-c2nc3cnccn3c2NC2CCCCC2)cc1 (stereo not given) | 3.73 µM
COc1ccc(C2=NN(c3nc4ccccc4s3)C(=O)C2)cc1 | 4.7 µM
COc1cc(NC(=O)Nc2cccc(Cl)c2)c(OC)cc1NC(=O)CN1CCCCC1 | 4.3 µM
CC(C)n1cnc2c(NCc3ccccc3)cc(Cc3ccc(F)cc3)cc21 | 4.67 µM
Cc1[nH]nc2c1C(c1ccc(-c3ccc(Cl)cc3)o1)C(C#N)=C(N)O2 (stereo not given) | 7.25 µM
Cc1ccc(-n2nnnc2Sc2ccc(S(=O)(=O)NCCN(C)C)cc2[N+](=O)[O-])cc1 | 6.72 µM
O=C(Nc1cc(S(=O)(=O)Nc2ccc(Cl)cc2)ccc1N1CCCCC1)c1ccc(F)cc1Cl | 5.37 µM
CN(C)c1ccc(-c2cc(O)c3ncccc3c2)cc1 | 12.8 µM
CC1CCCCN1c1cc(C#N)c(C#N)cc1[N+](=O)[O-] (stereo not given) | 1.77 µM
COc1cc2sc(-c3ccccc3OC)c(-c3ccc(OCCN4CCCCC4)cc3)c2cc1OC | 4.24 µM
O=C(c1ccccc1)c1nn(-c2ccc(Cl)cc2)c(=O)cc1C(F)(F)F | 3.68 µM
